A word on the ED50: it is the midpoint of the dose-response relation. High values mean weaker potency, low ones greater potency.

Data on one compound can be found in patent US12637413B2, “Fatty acid amide hydrolase (FAAH) cleavable prodrugs of thyromimetics and combination with peripherally restricted FAAH inhibitors” (Autobahn Therapeutics, Inc., priority 2021, dated 2026).

In one series the target is T1, FAAH (Mus musculus, UniProt O08914).
T1 construct: from tissue; host or cells: living mice; plasma, liver and brain sampled
T1 sequence (O08914 1-579): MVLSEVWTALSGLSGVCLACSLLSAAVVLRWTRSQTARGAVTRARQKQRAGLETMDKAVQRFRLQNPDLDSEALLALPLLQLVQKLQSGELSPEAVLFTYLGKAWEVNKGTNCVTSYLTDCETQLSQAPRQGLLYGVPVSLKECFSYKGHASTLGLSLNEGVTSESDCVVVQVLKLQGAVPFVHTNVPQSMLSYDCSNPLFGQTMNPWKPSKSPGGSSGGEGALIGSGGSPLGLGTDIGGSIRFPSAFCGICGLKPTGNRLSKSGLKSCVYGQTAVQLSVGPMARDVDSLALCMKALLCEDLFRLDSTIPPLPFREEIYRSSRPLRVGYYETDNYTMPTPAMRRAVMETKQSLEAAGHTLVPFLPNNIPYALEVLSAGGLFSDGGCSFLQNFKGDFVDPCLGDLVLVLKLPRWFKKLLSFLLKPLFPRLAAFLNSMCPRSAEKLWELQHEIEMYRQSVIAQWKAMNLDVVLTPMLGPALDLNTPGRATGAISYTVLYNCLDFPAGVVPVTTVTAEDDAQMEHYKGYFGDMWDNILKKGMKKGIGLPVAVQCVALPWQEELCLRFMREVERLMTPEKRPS
In words: tissue distribution after co-dosing prodrug ABX-002 with or without PFI or GFI. It counts as in vivo, mice. Conditions: plasma, liver and brain, co-dosing with PFI or GFI. The procedure: The ability of globally-penetrant and peripherally-restricted FAAH inhibitors (GFI & PFI, respectively) to alter distribution of ABX-002 and ABX-002A was assessed.
Table 5 depicts the inhibition of active metabolite (LL-650177 or PF-044578454) in AUC in the plasma, liver, and brain after prodrug (ABX-002) co-dosing. Tissue distribution studies in mice confirm global & peripheral inhibition of FAAH.

The next series concerns T4. In words: plasma T4 (ELISA) after 7 days PO QD dosing. Conditions: Mus musculus; effects on plasma T4, PO QD 7 days, 4 or 8 h after last dose. Format: in vivo, Female C57BL/6 mice. How it is done:
Female C57BL/6 mice (n=5/group), 6-8 weeks old, were acclimated to the study room for at least 3 days before dose administration in the studies. Mice were dosed at 5 mL/kg based on most recent body weight, collected once for the duration of the study. Based on most recent body weight, collected once for the duration of the study, mice were placed into weight-matched treatment dosing cohorts. Mice were given a single administration of PFI or vehicle orally (PO) daily (n=5/group) for 7 days at time=−1 hour. Following the PFI (100 μg/kg) or vehicle dose (10 mL/kg, p.o.), animals were given test article daily at time=0 hour. […] RNA from samples harvested 4 hours after final dose was quantified using a hybridization-based in situ RNA quantification method (NanoString, Seattle, WA), as described below. RNA from samples harvested 8 hours after final dose was quantified using a hybridization-based in situ RNA quantification method (QuantiGene Plex), as described below. […]
T4 was measured in terminal plasma samples using an ELISA kit (Biovision, Inc., Thyroxine [T4] [Mouse/Rat] ELISA Kit, Cat #: K7421-100). […] Absorbance was read at 450 nm within 15 min of addition of the Stop Solution using a Varioskan Lux plate reader (ThermoFisher Scientific, Carlsbad, CA). […] Unknown sample concentrations were determined using GraphPad Prism software (GraphPad Prism 9.0.2, GraphPad Software, San Diego, CA). […]
(In general: In an ELISA, binding on a coated surface is turned into a signal by an enzyme label.)

With `CNC(=O)COc1cc(Cl)c(Cc2ccc(O)c(C(C)C)c2)c(Cl)c1` [Compound 1], the “prodrug levels with FAAH inhibition” value at FAAH is reported as “did not change or slightly increased”. Besides, the ED50 in the series with T4 is 3.4 µg/kg.
